According to patent US20140288077A1, “SUBSTITUTED 4-PHENOXYPHENOL ANALOGS AS MODULATORS OF PROLIFERATING CELL NUCLEAR ANTIGEN ACTIVITY” (ST. JUDE CHILDREN'S RESEARCH HOSPITAL, priority 2011, published 2014):
“And” between values parts separate entries of the source, which are not always exact repeats. Equal entries are not always repeated.

Tests used:
HeLa cells = test: Immunostaining of phospho-Chk1 and γH2AX (DNA replication stress); format: cell-based; conditions: 4 h, FIG. 26A
U2OS cells [1] = test: Chromatin immunostaining of phospho(Ser33)RPA32; format: cell-based; conditions: 40 μM, 24 h, FIG. 26B
Procedure: The cells were fixed with 4% paraformaldehyde in PBS for 20 min at room temperature, rinsed three times with PBS for 5 min each, permeabilized with ice-cold methanol for 10 min at −20° C., and rinsed once with PBS for 5 min. The specimens were blocked with PBS containing 5% FBS and 0.03% Triton X-100 for 60 min, applied anti-PCNA antibody (1:3200) and anti-Polδ3 antibody (2.9 μg/ml) or anti-phospho(Ser^33)RPA32 antibody (4.0 μg/ml) in antibody buffer (PBS containing 1% FBS and 0.03% Triton X-100), incubated overnight in a humid chamber at 4° C., and rinsed with PBS three times for 5 min each at room temperature. The specimens were incubated with Alexa Fluor 555-conjugated goat anti-mouse IgG (Invitrogen) antibody (1:500) in the antibody buffer for 2 h in a humidified chamber at room temperature the dark, rinsed once with PBS for 5 min, incubated with Alexa Fluor 488-conjugated goat anti-rabbit IgG (Invitrogen) antibody (1:500) in the antibody buffer for 2 h in a humidified chamber at room temperature in the dark, and rinsed three times with PBS for 5 min. The coverslips were mounted VectaShield containing DAPI at 1 μg/ml (Vector Laboratories). Immunofluorescence imaging for chromatin was performed on a ClSi microscope (Nikon) with a Cascade 512B photomultiplier (Photometrics). Images were processed using EZC1 (Nikon) and Photoshop (Adobe) software. […]

cells [2] = test: Apoptosis analysis by flow cytometry (Annexin-V and PI); format: cell-based; parameters: dose or concentration left out as unconfirmed; conditions: 5 days, FIG. 25G
cells [3] = test: Cell cycle analysis by flow cytometry (PI); format: cell-based; conditions: 20 μM, 24 h, FIG. 25E
Polδ3 = test: Immunoblotting for Polδ3 in whole cell lysates; format: cell-based; conditions: U2OS cells, FIG. 24B
Procedure: The cells treated as indicated were washed twice with ice-cold PBS, collected in a spin tube, and lysed with radioimmune precipitation assay buffer supplemented with Halt protease inhibitor mixture and Halt phosphatase inhibitor mixture (Thermo Scientific) using approximately twice the volume of the cell pellet on ice for 0.5 h. Protein concentration was determined by a BCA assay (Thermo Scientific) according to the manufacturer's recommendation. Normalized amounts of samples were loaded on SDS-PAGE as indicated and electrotransferred to a PVDF membrane. The membrane was blocked with SuperBlock buffer (Thermo Scientific) and incubated with the indicated primary antibodies in SuperBlock at 4° C. overnight, rinsed with TBS, 0.05% Tween 20 three times for 10 min, incubated with the corresponding secondary IgG-HRP conjugate in SuperBlock at room temperature for 1 h, and rinsed with TBS, 0.05% Tween 20 for 15 min. Proteins probed on the membrane were visualized by chemiluminescence using WestPico reagent (Thermo Scientific) and developed on BioMax MR film (Eastman Kodak Co.).

XP2OS(SV40) cells = test: TLS assay in mammalian cultured cells with cisplatin-cross-linked Pt-GTG plasmid; format: cell-based; conditions: 5 μM of T2AA
Procedure: The cisplatin-modified plasmid was constructed, and the TLS assay was performed as previously described (14) with some modifications. Briefly, two oligonucleotides, [NT] and [NT], were annealed and inserted between the sites of EcoRV and EcoRI in pUCS[…]. The resultant plasmid was designated as pUCS[…]+ BglII. […] This oligonucleotide has the cross-link at the underlined site of [NT]. An unmodified 13-mer oligonucleotide was used for the construction of control plasmid. These oligonucleotides were purified with HPLC and PAGE. […] The gapped duplex plasmid was incubated with a 2-fold molar excess of the purified 13-mer oligonucleotide, which is complementary to the gap sequence except for a bulge in the middle in the presence of ATP (1 mM) and T4 DNA ligase (New England Biolabs, Ipswich, MA) at 16° C. for 6 min. The covalently closed circle plasmid was purified with equilibrium centrifugation on a CsCl gradient. The plasmids with and without the cisplatin adduct are hereafter referred to as Pt-GTG and Mock-GTG, respectively. […] The plasmids were extracted from the cells by using the QIAprep spin miniprep kit (Qiagen), digested with the restriction endonuclease DpnI (New England Biolabs) to remove the unreplicated plasmids, and introduced into Escherichia coli strain DH5α. The E. coli was plated onto LB agar plates containing ampicillin, X-gal, and isopropyl-β-D-thioga-lactopyranoside. […] Therefore, TLS frequency (%) was defined as (number of blue colonies/number of total colonies)×100.

U2OS cells [4] = test: Growth of cells after treatment with cisplatin and T2AA and release (Alamar Blue); conditions: 18 h, then 3 days drug-free, FIG. 28B
Procedure: The cells were treated with drugs as indicated in a black (transparent flat bottom) 384-well or 96-well plate. Cellular viability was determined by using Alamar Blue reagent (Invitrogen) on an EnVision plate reader according to the manufacturer's recommendations and normalized with signal from wells of DMSO treatment=100% and of no cells=0%.
Viability of the cells was measured by Alamar Blue reagent, and signals were normalized with those of no cell well (0%) and cells with no drugs (100%). NT, no treatment. Error bars, S.D.

U2OS cells [5] = test: DNA replication assay (BrdU incorporation); format: cell-based; conditions: titration of compound, 24 h, FIG. 25A-C
Procedure: DNA replication in U2OS and/or HeLa cells were analyzed by the rates of bromodeoxyuridine (BrdU) incorporation by a method reported previously (Taddei, A., et al. (1999) J. Cell Biol. 147, 1153-1166.). For immunofluorescence, cells were propagated at a subconfluent density onto a coverslip in a 6-well culture plate the day before the assay. […] During the last 15 min in the incubation period, BrdU was added at a concentration of 10 μM. Cells were washed with PBS and fixed with 4% paraformaldehyde in PBS for 15 min at room temperature. After permeabilization with 0.2% Triton X-100 in PBS for 15 min, cells were treated with 4N hydrochloric acid for 10 min and extensively rinsed with PBS. After blocking cells with 3% FBS in PBS for 20 min, anti-BrdU monoclonal antibody (1 μg/ml; clone 44, BD Pharmingen) was added to the cells and incubated at room temperature for 1 h. Cells were rinsed with PBS three times for 5 min each. Antimouse IgG conjugated with Alexa Fluor 555 (Invitrogen) was added and incubated at room temperature for 30 min. […] Fluorescence microscopy was done on an E800 microscope (Nikon) with a DXM1120 digital camera (Nikon). […] For quantitative analyses, BrdU incorporation was measured with the APC BrdU Flow Kit (BD Pharmingen) following the manufacturer's instructions. […] The populations of BrdU-positive cells (a) and mean BrdU intensity in S-phase cells (b) were recorded. […]

U2OS cells [6] = test: γH2AX staining by flow cytometry, T2AA and cisplatin; conditions: 18 h, FIG. 28A
Procedure: For γH2AX staining, cells were cultured at 4×10^5 cells/well of 12-well plates in 1 ml of medium, treated with drugs as indicated, trypsin-lifted and stained by using the FlowCellect H2A.X DNA Damage kit (FCCH025142, Millipore) according to the manufacturer's recommendations. All samples were filtered through 40-μm nylon mesh prior to running flow cytometry.
NT, no treatment. Error bars, S.D.

Q: How did the “phosphorylation of Chk1 and H2AX” value (HeLa cells) turn out when `N[C@H](CO)Cc1cc(I)c(Oc2ccc(O)cc2)c(I)c1` [Compound T2AA] was run?
A: phosphorylated

Q: What about the “immunofluorescence of phospho-RPA32 in nuclei” value (U2OS cells [1]) of the same molecule?
A: increased

Q: And the “apoptosis (Annexin-V / PI)” value (cells [2])?
A: increased cellular populations in early apoptosis but not necrosis

Q: What about the cell cycle (cells [3]) of the same molecule?
A: arrested cells at S-phase

Q: And the “expression of Polδ3 protein in whole cell lysate” value (Polδ3)?
A: not reduced

Q: And the “Mock GTG plasmid Raito (%) blue/total, Total/Average” value (XP2OS(SV40) cells)?
A: 36.9 (100) %

Q: And the “Pt-GTG plasmid Raito (%) blue/total, Total/Average” value (XP2OS(SV40) cells)?
A: 5.3 (14.2) %

Q: What about the “Mock GTG plasmid Raito (%) blue/total” value (XP2OS(SV40) cells; single experiments) of the same molecule?
A: 36.0% and 34.5% and 41.0% and 37.9% and 38.1% and 34.2%

Q: And the “reduction of U2OS cell growth” value (U2OS cells [4]; 10 μM T2AA alone)?
A: less than 10%

Q: What about the U2OS cell growth (U2OS cells [4]; cisplatin and T2AA together) of the same molecule?
A: significantly reduced

Q: And the BrdU incorporation (U2OS cells [5])?
A: inhibited the BrdU incorporation significantly in a dose-dependent manner

Q: And the “γH2AX level (DNA damage response)” value (U2OS cells [6]; T2AA and cisplatin together)?
A: further increased much higher than the level combined from each single treatment

Q: And the “γH2AX level (DNA damage response)” value (U2OS cells [6]; single agent)?
A: induced γH2AX only a little
